Our source for the EC50 values is patent publication US10034886B2, “GLP-1 receptor modulators” (Celgene International II SÀRL, priority 2014, dated 2018).

For this experiment, the target named is T1, GLP-1R (Homo sapiens, UniProt P43220).
T1 construct: host or cells: GLP-1R CRE-bla CHO-K1 cells
T1 sequence (P43220 24-463): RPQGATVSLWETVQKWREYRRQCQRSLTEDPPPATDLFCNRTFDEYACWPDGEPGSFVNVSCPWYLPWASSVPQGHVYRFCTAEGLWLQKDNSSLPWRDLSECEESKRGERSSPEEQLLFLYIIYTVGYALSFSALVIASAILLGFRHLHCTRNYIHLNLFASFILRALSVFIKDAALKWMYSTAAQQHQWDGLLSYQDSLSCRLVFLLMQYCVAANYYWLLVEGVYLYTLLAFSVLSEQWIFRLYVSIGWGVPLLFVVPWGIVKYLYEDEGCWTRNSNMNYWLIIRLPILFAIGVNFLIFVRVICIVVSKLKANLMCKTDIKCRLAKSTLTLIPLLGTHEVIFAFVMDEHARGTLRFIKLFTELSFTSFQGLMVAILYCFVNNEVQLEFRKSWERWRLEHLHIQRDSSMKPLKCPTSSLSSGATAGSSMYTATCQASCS
T1 sequence (P01275 100-127 partner limits assumed): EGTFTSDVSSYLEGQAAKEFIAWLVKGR
Briefly: EC20 GLP-1(9-36) PAM cAMP assay: dose response of compound in the presence of fixed concentration of GLP-1(9-36). To be noted: dose response of compound in presence of fixed concentration of GLP-1(9-36), GLP-1R CRE-bla CHO-K1 cells, read-out: EC20 GLP-1(9-36) PAM EC50. The class given is cell-based. Summed up:
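Positive allosteric modulation read as cAMP accumulation: compound titrations (12 points) combined with an EC20 level of GLP-1(9-36) on CHO-K1 GLP-1R CRE-bla cells, IBMX present, 30 min, 37 °C, pH 7.4 buffer. Luminescence converted to cAMP via standards; non-linear fit gave EC50 and Emax.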
Background: cAMP levels reflect the balance of adenylyl cyclase and phosphodiesterase activity.
Regarding `CCCCCCCOc1ccc(-c2nnc(-c3ccc(C[C@H](NC(=O)c4ccc(C(C)(C)C)cc4)C(=O)N[C@H](C)C(=O)O)cc3)s2)cc1` [Compound 802], the EC50 (as a rule, the concentration at which the effect is half-maximal) lay in the range of 2500 to 5000 nM. The same measure for `CC(C)(C)c1ccc(C(=O)N[C@@H](Cc2ccc(-c3ncc(-c4ccc(OCC5CCC(C(C)(C)C)CC5)cc4)cn3)cc2)C(=O)NCCC(=O)O)cc1` (some centres unmarked) [Compound 803]: 800 to 2500 nM; for `CCCCCCCOc1ccc(N2CCN(c3ccc(C[C@H](NC(=O)c4ccc(C(C)(C)C)cc4)C(=O)N[C@H](C)C(=O)O)cc3)CC2)cc1` [Compound 804]: 800 to 2500 nM. To `CCCCCCCOc1ccc2nc(-c3ccc(C[C@H](NC(=O)c4ccc(C(C)(C)C)cc4)C(=O)N[C@H](C)C(=O)O)cc3)ccc2c1` [Compound 806] belongs 800 to 2500 nM; to `CCCCCCCOc1ccc2nc(-c3ccc(C[C@H](NC(=O)c4ccc(C(C)(C)C)cc4)C(=O)N4CC[C@H](C(=O)O)C4)cc3)ccc2c1` [Compound 807], 5000 to 10000 nM; to `CCCCCCCOc1ccc2cc(-c3ccc(C[C@H](NC(=O)c4ccc(C(C)(C)C)cc4)C(=O)N[C@H](C)C(=O)O)cc3)ncc2c1` [Compound 808], 2500 to 5000 nM.

Turning to `CCCCCCCOc1ccc2nc(-c3ccc(C[C@H](NC(=O)c4ccc(C(C)(C)C)cc4)C(=O)N[C@H](C)C(=O)O)cc3)ncc2c1` [Compound 809], the EC50 was in the range of 800 to 2500 nM.

Consider `CCCCCCCOc1ccc2nc(-c3ccc(C[C@H](NC(=O)c4ccc(C(C)(C)C)cc4)C(=O)N4CC[C@H](C(=O)O)C4)cc3)ncc2c1` [Compound 810], for which the EC50 lay within 5000 to 10000 nM. With `CCCCCCCOc1ccc(-c2ccc(-c3ccc(C[C@H](NC(=O)c4ccc(C(C)(C)C)s4)C(=O)N[C@H](C)C(=O)O)cc3)nc2)cc1` [Compound 811], the EC50 was in the range of 800 to 2500 nM.

As to `CCCCCCCOc1ccc(-c2cnc(-c3ccc(C[C@H](NC(=O)c4ccc(C(C)(C)C)s4)C(=O)N[C@H](C)C(=O)O)cc3)c(C)c2)cc1` [Compound 812], the EC50 was 800 to 2500 nM.

As for `CCCCCCCOc1ccc(-c2cnc(-c3ccc(C[C@H](NC(=O)c4ccc(CC(C)C)s4)C(=O)N[C@H](C)C(=O)O)cc3)nc2)cc1` [Compound 813], the EC50 fell in the range of 800 to 2500 nM. The same measure for `CCCCCCCOc1ccc(-c2cnc(-c3ccc(C[C@H](NC(=O)c4cc5c(s4)CCC(C)C5)C(=O)N[C@H](C)C(=O)O)cc3)nc2)cc1` (some centres unmarked) [Compound 814]: 800 to 2500 nM.

For `CCCCCCCOc1ccc(-c2cnc(-c3ccc(C[C@H](NC(=O)c4ccc(C(F)(F)F)s4)C(=O)N[C@H](C)C(=O)O)cc3)nc2)cc1` [Compound 815], the EC50 was less than 800 nM. To `CCCCCCCOc1ccc(-c2cnc(-c3ccc(C[C@H](NC(=O)c4ccc(S(C)(=O)=O)cc4)C(=O)N[C@H](C)C(=O)O)cc3)nc2)cc1` [Compound 816] belongs 800 to 2500 nM.

In the case of `CCCCCCCOc1ccc(-c2cnc(-c3ccc(C[C@H](NC(=O)c4ccc(OC)cc4)C(=O)N[C@H](C)C(=O)O)cc3)nc2)cc1` [Compound 817], the EC50 was 800 to 2500 nM. `CCCCCCCOc1ccc(-c2cnc(-c3ccc(C[C@H](NC(=O)c4ccc(OCC)cc4)C(=O)N[C@H](C)C(=O)O)cc3)nc2)cc1` [Compound 818]: the concentration giving a half-maximal response (EC50) lay within 800 to 2500 nM. The same measure for `CCCCCCCOc1ccc(-c2cnc(-c3ccc(C[C@H](NC(=O)c4ccc(CCCC)cc4)C(=O)N[C@H](C)C(=O)O)cc3)nc2)cc1` [Compound 819]: 2500 to 5000 nM; for `CCCCCCCOc1ccc(-c2cnc(-c3ccc(C[C@H](NC(=O)c4ccc(CCCC)cc4)C(=O)N[C@H](C)C(=O)O)cc3)nc2)cc1` [Compound 820]: 2500 to 5000 nM. The same measure for `CCCCCCCOc1ccc(-c2cnc(-c3ccc(C[C@H](NC(=O)c4ccc(CCCC)cc4)C(=O)N[C@H](C)C(=O)O)cc3)nc2)cc1` [Compound 821]: 800 to 2500 nM; for `CCCCCCCOc1ccc(-c2cnc(-c3ccc(C[C@H](NC(=O)c4ccc(C(F)(F)F)cc4)C(=O)N[C@H](C)C(=O)O)cc3)nc2)cc1` [Compound 822]: 2500 to 5000 nM; for `CCCCCCCOc1ccc(-c2cnc(-c3ccc(C[C@H](NC(=O)c4ccc(CC(C)C)cc4)C(=O)N[C@H](C)C(=O)O)cc3)nc2)cc1` [Compound 823]: 800 to 2500 nM. On to `CCCCCCCOc1ccc(-c2cnc(-c3ccc(C[C@H](NC(=O)c4ccc(Oc5ccccc5)cc4)C(=O)N[C@H](C)C(=O)O)cc3)nc2)cc1` [Compound 824], for which the 50% effective concentration (EC50) was less than 800 nM.

Regarding `CCCCCCCOc1ccc(-c2cnc(-c3ccc(C[C@H](NC(=O)c4ccc(Cc5ccccc5)cc4)C(=O)N[C@H](C)C(=O)O)cc3)nc2)cc1` [Compound 825], the EC50 is less than 800 nM. Take `CCCCCCCOc1ccc(-c2cnc(-c3ccc(C[C@H](NC(=O)CN(C)C)C(=O)N[C@H](C)C(=O)O)cc3)nc2)cc1` [Compound 826]: the EC50 fell in the range of 2500 to 5000 nM. The same measure for `CCCCCCCOc1ccc(-c2cnc(-c3ccc(C[C@H](NC(=O)c4ccc(C5CC5)cc4)C(=O)N[C@H](C)C(=O)O)cc3)nc2)cc1` [Compound 827]: 800 to 2500 nM; for `CCCCCCCOc1ccc(-c2cnc(-c3ccc(C[C@H](NC(=O)c4ccc(CC)cc4)C(=O)N[C@H](C)C(=O)O)cc3)nc2)cc1` [Compound 828]: less than 800 nM. To `CCCCCCCOc1ccc(-c2cnc(-c3ccc(C[C@H](NC(=O)c4ccc(OCC(C)C)cc4)C(=O)N[C@H](C)C(=O)O)cc3)nc2)cc1` [Compound 829] belongs 5000 to 10000 nM; to `CCCCCCCOc1ccc(-c2cnc(-c3ccc(C[C@H](NC(=O)c4ccc(CCC)cc4)C(=O)N[C@H](C)C(=O)O)cc3)nc2)cc1` [Compound 830], 5000 to 10000 nM. The same measure for `CCCCCCCOc1ccc(-c2cnc(-c3ccc(C[C@H](NC(=O)c4cnc(C(C)(C)C)nc4)C(=O)N[C@H](C)C(=O)O)cc3)nc2)cc1` [Compound 832]: 2500 to 5000 nM; for `CCCCCCCOc1ccc(-c2cnc(-c3ccc(C[C@H](NC(=O)[C@H]4CC[C@H](C(C)(C)C)CC4)C(=O)N[C@H](C)C(=O)O)cc3)nc2)cc1` [Compound 833]: 5000 to 10000 nM; for `CCCCCCCOc1ccc(-c2cnc(-c3ccc(C[C@H](NC(=O)c4ccc(C(C)(C)CC)cc4)C(=O)N[C@H](C)C(=O)O)cc3)nc2)cc1` [Compound 834]: 800 to 2500 nM.

`CCCCCCCOc1ccc(-c2cnc(-c3ccc(C[C@H](NC(=O)c4ccc(C(C)(C)C#N)cc4)C(=O)N[C@H](C)C(=O)O)cc3)nc2)cc1` [Compound 835]: the EC50 lay in the range of 2500 to 5000 nM. Regarding `CCCCCCCOc1ccc(-c2cnc(-c3ccc(C[C@H](NC(=O)c4ccc(C(C)(C)C)cc4OCC)C(=O)N[C@H](C)C(=O)O)cc3)nc2)cc1` [Compound 836], the EC50 lay within 2500 to 5000 nM. Regarding `CCCCCCCOc1ccc(-c2cnc(-c3ccc(C[C@H](NC(=O)c4ccc(C(C)(C)C)c(OC)c4)C(=O)N[C@H](C)C(=O)O)cc3)nc2)cc1` [Compound 837], the EC50 is less than 800 nM.

As for `CCCCCCCOc1ccc(-c2cnc(-c3ccc(C[C@H](NC(=O)c4ccn(C(C)(C)C)c4)C(=O)N[C@H](C)C(=O)O)cc3)nc2)cc1` [Compound 838], the EC50 lay in the range of 800 to 2500 nM.

Take `CCCCCCCOc1ccc(-c2cnc(-c3ccc(C[C@H](NC(=O)c4ccc(CC)s4)C(=O)N[C@H](C)C(=O)O)cc3)nc2)cc1` [Compound 839]: the EC50 fell in the range of 800 to 2500 nM.

With `CCCCCCCOc1ccc(-c2cnc(-c3ccc(C[C@H](NC(=O)c4ccc(CCC)s4)C(=O)N[C@H](C)C(=O)O)cc3)nc2)cc1` [Compound 840], the EC50 was 800 to 2500 nM. On to `CCCCCCCOc1ccc(-c2cnc(-c3ccc(C[C@H](NC(=O)c4ccc(C(C)C)s4)C(=O)N[C@H](C)C(=O)O)cc3)nc2)cc1` [Compound 841], for which the half-maximal effective concentration (EC50) was in the range of 800 to 2500 nM. The same measure for `CCCCCCCOc1ccc(-c2cnc(-c3ccc(C[C@H](NC(=O)c4ccc(C5CC5)s4)C(=O)N[C@H](C)C(=O)O)cc3)nc2)cc1` [Compound 842]: 800 to 2500 nM. The same measure for `CCCCCCCOc1ccc(-c2cnc(-c3ccc(C[C@H](NC(=O)c4ccc(C(C)(C)C)cc4C)C(=O)N[C@H](C)C(=O)O)cc3)nc2)cc1` [Compound 843]: 800 to 2500 nM; for `CCCCCCCOc1ccc(-c2cnc(-c3ccc(C[C@H](NC(=O)c4ccc(C(C)C)cc4)C(=O)N4CC[C@H](C(=O)O)C4)cc3)nc2)cc1` [Compound 844]: 800 to 2500 nM; for `CCCCCCCOc1ccc(-c2cnc(-c3ccc(C[C@H](NC(=O)c4ccc(C(C)C)s4)C(=O)N4CC[C@H](C(=O)O)C4)cc3)nc2)cc1` [Compound 845]: 2500 to 5000 nM. The same measure for `CCCCCCCOc1ccc(-c2cnc(-c3ccc(C[C@H](NC(=O)c4ccc(OC)cc4)C(=O)N4CC[C@H](C(=O)O)C4)cc3)nc2)cc1` [Compound 846]: 2500 to 5000 nM. As for `CCCCCCCOc1ccc(-c2cnc(-c3ccc(C[C@H](NC(=O)c4ccc(CC(C)C)s4)C(=O)N4CC[C@H](C(=O)O)C4)cc3)nc2)cc1` [Compound 847], the EC50 was in the range of 2500 to 5000 nM. To `CCCCCCCOc1ccc(-c2cnc(-c3ccc(C[C@H](NC(=O)c4ccc(OCC)cc4)C(=O)N4CC[C@H](C(=O)O)C4)cc3)nc2)cc1` [Compound 848] belongs 2500 to 5000 nM; to `CCCCCCCOc1ccc(-c2cnc(-c3ccc(C[C@H](NC(=O)c4ccc(OC(C)C)cc4)C(=O)N4CC[C@H](C(=O)O)C4)cc3)nc2)cc1` [Compound 849], 2500 to 5000 nM.

Turning to `CCCCCCCOc1ccc(-c2cnc(-c3ccc(C[C@H](NC(=O)c4ccc(CCCC)cc4)C(=O)N4CC[C@H](C(=O)O)C4)cc3)nc2)cc1` [Compound 850], the EC50 fell in the range of 2500 to 5000 nM. Take `CCCCCCCOc1ccc(-c2cnc(-c3ccc(C[C@H](NC(=O)c4ccc(CC(C)C)cc4)C(=O)N4CC[C@H](C(=O)O)C4)cc3)nc2)cc1` [Compound 851]: the EC50 fell in the range of 2500 to 5000 nM. `CCCCCCCOc1ccc(-c2cnc(-c3ccc(C[C@H](NC(=O)c4ccc(C(C)(C)C)cc4OC)C(=O)N4CC[C@H](C(=O)O)C4)cc3)nc2)cc1` [Compound 852]: the EC50 is 2500 to 5000 nM.

With `CCCCCCCOc1ccc(-c2cnc(-c3ccc(C[C@H](NC(=O)c4ccc(CCC)cc4)C(=O)N4CC[C@H](C(=O)O)C4)cc3)nc2)cc1` [Compound 853], the EC50 is 800 to 2500 nM.
